The subject of one data set is HSV-I. As to the kind of experiment: HSV-I plaque inhibition disk assay (antiviral effectiveness). In kind it is cell-based, herpes simplex-I. On the set-up: key to inhibition of plaque formation: +++: complete inhibition; ++: a few plaques around the outside of well; +: definite inhibition; +/-: questionable inhibition; -: no inhibition. How it is done:
The following assay method was utilized to illustrate the antiviral effectiveness of the compound of Formula II. (1) Remove 75 cm^2 culture flasks from incubator (these were plated the previous week). (11) For assay, add 1×10^6 cells to each well (6 wells per culture dish). Bring each well to 2 ml with fresh medium. (1) Aspirate medium. (2) Add 0.5 of medium containing 200 pfu HSV-I. (3) Incubate […] with a small amount of shaking. (4) Add 2 ml MC-4000 to each well. (5) Place disks on surface and push through (1 mg/disc, 0.5 mg/disc, 0.25 mg/disc, etc. for crude extracts). (6) Incubate 48 hr. (making sure dishes remain level). Day 4: (1) Add 2 ml neutral red medium. (2) Incubate overnight.

In a further data set the test system is cells. Kind of data set: Zone of cytotoxicity in antiviral disk assay. Type of data set: cell-based. The note with it: read at Day 5. On the procedure:
The following assay method was utilized to illustrate the antiviral effectiveness of the compound of Formula II.
(11) For assay, add 1×10^6 cells to each well (6 wells per culture dish). Bring each well to 2 ml with fresh medium.
(4) Add 2 ml MC-4000 to each well.
(5) Place disks on surface and push through (1 mg/disc, 0.5 mg/disc, 0.25 mg/disc, etc. for crude extracts).
(1) Add 2 ml neutral red medium.

The test system of data set [1] is L-1210 murine leukemia cells. As to the kind of experiment: L-1210 mouse leukemia cell cytotoxicity assay. Type of data set: cell-based. Conditions: L-1210, at 200 μg/ml, in vitro. On the procedure:
The following assay method was utilized to illustrate the antitumor effectiveness of the compounds of formulas II, IV, V, VI and VII.
L1210 And P388 MOUSE LEUKEMIA CELL CYTOXICITY ASSAY 24-WELL PLATE SCREENING ASSAY AND TUBE ASSAY PROTOCOL
Media--Dulbeccos with glucose and pyruvate (Biologos, Inc) with 10% horse serum, (Biologos, Inc) and 1.0 μg/ml gentamicin (Gibco). Cells--L1210 and P-388 mouse leukemia cells (American Type Culture Collection) in media at a concentration of 5×10^4 cells/ml. Sterile 24-well culture plates (Nunc) for screening or 12×75 mm glass culture tubes (Becton-Dickinson) for tube assay. Microdispenser with 1 to 5 μl increments (Drummond Scientific Co. Broomall Pa). Finnpipette with […] and Finnpipette with 50 to 200 μl increments.
1. A sample of the composition to be assayed is added to each well or tube in an amount of from 200 μg/ml and 100 μg/ml for screening. For DDC of known active compounds use log concentrations from 100 μg/ml to 0.01 μg/ml for range-finding assay; when range has been determined, use five concentrations between highest and lowest active concentrations.
2. Add 2.0 ml of 5×10^4 cell suspension in media to each well or tube. Tubes are loosely covered with parafilm.
3. Incubate in 5% CO2 incubator 48 hours.
4. Visually read plates with inverted microscope, comparing with solvent control. Assign activity as follows: […]

A short description of data set [2]: Stability of isolated alcohol derivative at room temperature. Type of data set: physicochemical.

Each structure is given as a SMILES string.

For the compound `CC(=O)OCC(Cl)C1=CC(C)(C)C=CC1=O` (stereo not drawn) [Formula II], the “inhibition of plaque formation” value in the data set with HSV-I (200 pfu, read at Day 5) is recorded as “++”. Moreover, the antiviral activity entry with HSV-I (results at Day 5, in words) is on record as “definite antiviral activity”. Further, the “zone of cytotoxicity (diameter)” value in the data set with cells was determined as 16 mm. The viability at 200 µg/mL in data set [1] (Mus musculus, L1210, 48 h, read-out: survival) amounted to 100%.

As for `CC1(C)C=CC(=O)C(C(Cl)CO)=C1` (stereo not drawn) [Formula VIII], the decomposition time entry in data set [2] is on record as “two”.

As to `CC1(C)C=CC(=O)C(C2CO2)=C1` (stereo not drawn) [Formula VII], the survival in data set [1] (48 hours, 2880 min) was 28%.

(Values after patent US4921873A, “Antiviral and antitumor cyclohexadienone compositions” (Harbor Branch Oceanographic Institution, Inc., priority 1985, dated 1990).)
